What was measured:
[1] = test system: mice; set-up: method as in PMID 23791825; settings: cited from earlier work
[2] = test system: T. gondii (ME49 strain); assay: Efficacy in mice chronically infected with T. gondii (brain cysts, qPCR parasite burden); type: in vivo, Toxoplasma gondii; settings: C57BL/6 mice chronically infected with ME49
Description: Chronic infection in Male C57/BL/6 mice (4 weeks-old) was obtained by intraperitoneal injection of brain tissue cysts (ME49 strain) as previously described. The cysts were obtained by directly macerating the brain tissue of previously chronically infected mice in 5 mL of saline solution. The resulting mixture was then subjected to a counting procedure using a Neubauer chamber under a microscope to determine the concentration of the cysts. To prepare the cysts for injection, they were further diluted in saline solution to achieve the desired concentration of 10 cysts per animal. Subsequently, the mice in the experiment were infected with these freshly obtained brain cysts via intraperitoneal injection. The animals were considered chronically infected 40 days post-infection, according to the protocol described by. […] Additionally, the presence of brain cysts, known to be responsible for the observed symptoms, further confirmed the chronic infection status.
Forty days after infection, chronically infected mice were randomly assigned into experimental groups (n = 4 per group). […] On day 51 post-infection, all animals were euthanized, and their brains were collected for analyses. The brains were used for microscopic counting of cysts, measurement of cysts area, RNA extraction, and quantification. For microscopic counting, 25 μL of macerated organ was utilized, while 200 μL was used for RNA extraction. Cysts area was measured using ImageJ software, available at https://imagej.nih.gov/ij/.
We performed a serial dilution of cultured tachyzoites of T. gondii (RH strain), ranging from 5×10^6 to 7.8×10^4 forms per mL. DNA samples were extracted from each point of the serial dilution (in duplicate samples), and real-time PCR was performed. The resulting data were used to plot the cycle threshold value (CT) against varying amounts of parasites, ultimately generating a standard curve. […]
Each DNA and cDNA samples were analysed by quantitative real-time PCR using the set of primers Rep529, which amplified a T. gondii repetitive DNA fragment. […]

C=CCNc1nc(NCC=C)nc(N2CCN(C(c3ccc(F)cc3)c3ccc(F)cc3)CC2)n1 [almitrine bismesylate]
LD50 [1]: > 200 mg/kg | parasite burden in the brains (real-time PCR) ([2]; 25 mg/kg/day oral for 10 days, RNA of living parasites by qPCR, vs vehicle control group): statistically significant (p < 0.001) reduction | cysts area ([2]; 12.5 and 25 mg/kg/day oral for 10 days from day 40 post-infection, microscopy of brain macerates, ImageJ, vs vehicle): significant reduction (p < 0.05) | number of brain cysts ([2]; 12.5 and 25 mg/kg/day oral for 10 days from day 40 post-infection, microscopy of brain macerates, vs vehicle): significant reduction (p < 0.05)
